# Patent publication US9993570B2, “Radiolabeled tracers for poly (ADP-ribose) polymerase-1 (PARP-1), methods and uses therefor” (Washington University, priority 2014, dated 2018)
# “Also recorded” adds a separate entry of the source. Read-outs that look alike come from different tables or passages of the source.
# Legend:
# PARP-1 = PARP-1 (Homo sapiens, UniProt P09874); test: PARP-1 enzymatic activity assay (chemical quantification of NAD+)
# From the text: This assay is based on the chemical quantification of NAD^+, i.e. the amount of NAD^+ consumed when the active PARP-1 C-terminal catalytic domain sequentially transfers ADP-ribose subunits from nicotinamide adenine dinucleotide (NAD^+) to protein acceptors.^7
# High-specific-activity PARP-1 and activated DNA were purchased from Trevigen (Gaithersburg, Md.). All other reagents required for this assay including NAD^+ were purchased from Sigma-Aldrich (St. Louis, Mo.). Known PARP-1 inhibitor PJ-34, used as a control in these experiments, was synthesized in-house. […] A solution of 50 μg/mL of activated DNA was made in PARP assay buffer and 10 μL was added to each well. Stock solutions of test compounds were first prepared in DMSO, diluted to varying concentrations in PARP assay buffer, and 10 μL was added to each well. To initiate the reaction, 10 μL of 10 μg/mL PARP-1 enzyme in PARP assay buffer was added to each well. The total volume was 50 μL, bringing the final concentrations to 2 μg/mL PARP-1 enzyme, 10 μg mL activated DNA, and 100 nM NAD^+ per well. The plate was then incubated at room temperature for 20 min. The amount of NAD^+ present was then determined by first adding 20 μL 2 M KOH, followed by 20 μL of 20% acetophenone (in ethanol) to each well.
# MDA-MB-231 tumors = test: microPET imaging with [18F]12, MDA-MB-231 tumors; type: in vivo, mice; settings: for effect of drug treatment on tracer uptake outside the tumor (microPET images): MDA-MB-231 tumor-bearing mice; for effect of drug treatment on tracer uptake outside the tumor (microPET images) / effect of drug treatment on tumor uptake of tracer (microPET images): 50 mg/kg IP 30 minutes before imaging; for effect of drug treatment on tumor uptake of tracer (microPET images) / tracer uptake, percent of injected dose per ml, after drug treatment vs baseline: MDA-MB-231 tumors; for tracer uptake, percent of injected dose per ml, after drug treatment vs baseline: 30 minutes after IP injection, paired t test
# Experimental: (§1) This example illustrates the visualization of tumor tissue in microPET in mice. MDA-MB-436 human breast cancer xenograft tumors in immune-deficient mice were visualized by PET using [^18F]12.
# (§2) Tumor-bearing mice were placed in an induction chamber containing ˜2% isoflurane/oxygen and then secured to a custom double bed for placement of tail vein catheters; anesthesia was maintained via nose-cone at ˜1% isoflurane/oxygen for the dynamic imaging procedure. The mice were injected with 150-200 μCi of [^18F]12 and scanned for 0-60 min using Focus 220 and Inveon PET/CT scanners. The standard uptake values (SUVs) were generated from manually drawn regions of interests for tumors and surrounding ‘background’ tissue. Visualization of specific uptake was determined by comparison of baseline scans with images acquired by tracer injection 20 minutes after pre-treatment with the blocking agents olaparib (50 mg/kg, IP) or 12 (1 mg/kg, IP).
# (§3) This example illustrates uptake of Compound 12 ([^18F]WC-4-138) in mice. Mature female athymic nude mice (Charles River Laboratories) were implanted with 10^6 SCC1 cells or 10^7 MDA-MB-231 cells into the mammary fat pads. Mice bearing SCC1 tumors were imaged at 5 weeks and mice bearing MDA-MB-231 cells were imaged at 2.5 weeks after implant. Mice were anesthetized with 2% isoflurane/oxygen and maintained at 1% isoflurane/oxygen via nose cone throughout the imaging procedure. Whole animal microCT images were acquired on an Inveon PET/CT scanner. The mice were injected via tail vein with 11.36±0.5 MBq (307±13 μCi) of [^18F]WC(4)-138 and underwent a 60 minute dynamic scan using Focus 220 or Inveon PET/CT scanners. The microPET and microCT images were coregistered using Integrated Research Workflow software (Siemens). Regions of interest were drawn over tumors to determine time activity curves. For drug treatment studies, animals reached intraperitoneal injections of 50 mg/kg olaparib or iniparib 30 minutes before imaging. Mice were imaged at baseline, or 30 minutes after IP injection of olaparib or iniparib. Arrows indicate location of tumors as identified on CT.
# (§4) In FIG. 8, mice were imaged at baseline, or 30 minutes after IP injection of olaparib or iniparib. (A) The percent of injected dose per ml was calculated for each MDA/MB-231 tumor at baseline or after drug treatment. […] Tracer uptake was unchanged in iniparib-treated mice (p=0.1098 as determined by a paired t test, n=6 tumors).
# SCC1 tumors = test: microPET imaging with [18F]WC-4-138, SCC1 tumors; type: in vivo, mice; settings: 30 minutes after IP injection, paired t test
# From the text: as §3, with “Mice were imaged at baseline, or 30 minutes after IP injection of olaparib or iniparib. Arrows indicate location of tumors as identified on CT.” left out
# as §4
# [1] = system: head and neck cell lines SCC1 and SCC25; test: [18F]WC-4-138 uptake in cell culture, head and neck lines; type: cell-based; settings: 10 μM drug prior to incubation with tracer
# Experimental: In these experiments, the head and neck squamous cell carcinoma lines SCC1, SCC15, and SCC25 (ATCC) were propagated in Dulbecco's Modified Eagle's Medium (DMEM, Gibco) supplemented with 10% Fetal Bovine Serum (FBS, Gibco), Penicillin-Streptomycin (P/S, Gibco), and 100 ng/ml hydrocortisone (Sigma-Aldrich). The small cell lung cancer lines NCI-h69 and NCI-h82 (ATCC) were propagated m RPMI Medium (Gibco) supplemented with 10% FBS and 1% P/S. The human breast cancer cell line MDA-MB-231 (ATCC) was propagated in Eagle's Minimum Essential Medium (Gibco) supplemented with 5% FBS, 2% Vitamins for MEM (Gibco), 1% 200 mM L-glutamine (Gibco), 1% 10 mM Non-Essential Amino Acid (NEAA, Gibco).
# For each experimental replicate, approximately 1 μCi of [^18F]WC-4-138 was diluted in 1 ml of cell culture medium and added to 10^6 cells. After 5, 30, or 60 minutes, the medium was collected and cells were washed twice in 0.7 ml Phosphate Buffered Saline (PBS, Gibco). Adherent cells were collected by scraping the cell culture dish and transferring to a microfuge tube. Radioactivity was measured in the collected medium, PBS, or cell pellets. Protein from the cell pellet was quantified using a […]. All data were decay-corrected and normalized to total protein quantity in the cell pellet. For drug treatment studies, cells were incubated with 10 μM Olaparib or Iniparib twenty-hours prior to incubation with [^18F]WC-4-138.
# The head and neck cell lines SCC1 and SCC25 constitutively take up small amounts of tracer, registering as 0.001-0.002 μCi/μg in the cell pellet (FIG. 5A). […] Radioactivity was measured in head and neck squamous cell cancer (HNSCC) lines (SCC1 and SCC25) or small cell lung cancer (SCLC) lines (NCI-h69 and NCI-h82) after incubation with [^18F]WC-4-138 for 5, 30, or 60 minutes (n=3 at each time point). […] PARP activity was measured in HNSCC or lung SCLC cells. (FIG. 5C-D) [^18F]WC-4-138 uptake was measured in HNSCC cell lines treated with olaparib or iniparib. […]
# MDA-MB-436 tumors = test: microPET imaging with [18F]12, MDA-MB-436 xenograft tumors; type: in vivo, mice; settings: olaparib 50 mg/kg i.p. or 12 1 mg/kg i.p., 20 min prior to tracer
# Experimental: as §1
# MDA-MB-436 and MDA-MB-231 human breast cancer cells were maintained in cell culture under standard conditions with 5% CO2 atmosphere using Eagle's minimum essential medium (with Earle's balanced salt solution and 2 mM L-glutamine) supplemented with 2 mM E-glutamine, 1 mM sodium pyruvate, 0.1 mM non-essential amino acids 2% vitamins for MEM, and 5% fetal bovine serum. Cells in exponential growth were trypsinized and harvested for tumor implantation. After counting, cells were re-suspended in ice-cold 1:1 Matrigel and PBS to give the desired concentration and held on ice.
# Mature female athymic nu/nu mice from Charles River Laboratories are allowed to acclimate in an AALAC accredited housing facility for at least 1 week prior to tumor implantation for these serial imaging studies. Female nu/nu mice were implanted in the mammary fat pads (near the auxiliary lymph nodes) with ˜8×10^6 MDA-MB-436 breast cancer cells in ˜100 μL of 1:1 Matrigel:PBS. Imaging studies were conducted 2-3 weeks post implantation.
# as §2
# [2] = read-out: IC50 (nM), inhibition of PARP-1, mean ± SD, at least three independent experiments
# PARP-1, sequence (P09874 whole entry): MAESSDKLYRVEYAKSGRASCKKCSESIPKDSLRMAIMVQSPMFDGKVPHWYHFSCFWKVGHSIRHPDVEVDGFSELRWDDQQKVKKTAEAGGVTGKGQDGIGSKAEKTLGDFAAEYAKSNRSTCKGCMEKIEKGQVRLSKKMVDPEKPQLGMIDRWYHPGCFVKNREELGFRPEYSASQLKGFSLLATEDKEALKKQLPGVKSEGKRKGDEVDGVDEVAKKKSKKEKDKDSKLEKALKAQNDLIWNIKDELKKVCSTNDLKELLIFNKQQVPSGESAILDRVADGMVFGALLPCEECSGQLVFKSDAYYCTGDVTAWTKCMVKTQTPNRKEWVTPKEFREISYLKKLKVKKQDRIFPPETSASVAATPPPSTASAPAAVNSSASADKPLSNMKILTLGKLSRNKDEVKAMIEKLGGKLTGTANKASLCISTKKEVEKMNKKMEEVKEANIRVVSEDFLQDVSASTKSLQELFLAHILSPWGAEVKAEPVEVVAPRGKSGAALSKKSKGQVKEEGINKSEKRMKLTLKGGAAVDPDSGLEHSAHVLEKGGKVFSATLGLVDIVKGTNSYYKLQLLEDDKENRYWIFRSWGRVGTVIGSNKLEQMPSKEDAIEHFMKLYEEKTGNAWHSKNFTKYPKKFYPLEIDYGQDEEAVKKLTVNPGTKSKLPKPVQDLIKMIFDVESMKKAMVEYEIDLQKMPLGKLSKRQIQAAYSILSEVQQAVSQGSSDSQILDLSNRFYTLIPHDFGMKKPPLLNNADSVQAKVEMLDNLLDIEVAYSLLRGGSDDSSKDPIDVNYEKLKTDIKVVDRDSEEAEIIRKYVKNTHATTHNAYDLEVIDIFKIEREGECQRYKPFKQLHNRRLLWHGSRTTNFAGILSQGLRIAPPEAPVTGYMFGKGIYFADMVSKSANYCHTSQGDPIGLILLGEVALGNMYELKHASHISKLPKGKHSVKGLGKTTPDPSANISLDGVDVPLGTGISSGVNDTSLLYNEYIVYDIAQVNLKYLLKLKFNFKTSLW
structure (smiles),measurement,setting,value
"O=C1NCCn2c(-c3ccc(OCCF)cc3)nc3cccc1c32 [Compound 12, 5,6-Dihydro-2-(4-(2-fluoroethoxy)phenyl)-imidazo [4,5,1-jk][1,4]benezodiazepin-7(4H)-one]",IC50,PARP-1,63 nM
NC(=O)c1ccc(I)c([N+](=O)[O-])c1 [iniparib],effect of drug treatment on tracer uptake outside the tumor (microPET images),MDA-MB-231 tumors,abolishes said uptake in other types of cells
same,effect of drug treatment on tumor uptake of tracer (microPET images),MDA-MB-231 tumors,does not effect the uptake
same,"tracer uptake, percent of injected dose per ml, after drug treatment vs baseline",MDA-MB-231 tumors,unchanged
same,"tracer uptake, percent of injected dose per ml, after drug treatment vs baseline",SCC1 tumors,unchanged
same,effect of drug on [18F]WC-4-138 uptake in HNSCC cell lines,[1],not
O=C(c1cc(Cc2n[nH]c(=O)c3ccccc23)ccc1F)N1CCN(C(=O)C2CC2)CC1 [olaparib],effect of pretreatment on [18F]12 uptake in MDA-MB-436 tumors,MDA-MB-436 tumors,decreased [^18F]12 uptake in the tumors to the background tissue activity levels; also recorded: significantly decreased [^18F]12 uptake; also recorded: blocked
same,effect of pretreatment on [18F]12 uptake in MDA-MB-436 tumors,MDA-MB-436 tumors; listed as olaparib/AZD2281,blocked
same,effect of drug treatment on tracer uptake outside the tumor (microPET images),MDA-MB-231 tumors,tracer is still present in other areas of the section
same,effect of drug treatment on tumor uptake of tracer (microPET images),MDA-MB-231 tumors,abolished
same,"tracer uptake, percent of injected dose per ml, after drug treatment vs baseline",MDA-MB-231 tumors,significantly reduced
same,effect of pretreatment on [18F]12 uptake in MDA-MB-231 tumor,"MDA-MB-231 tumors; i.p. 50 mg/kg, 20 min pretreatment",decreased [^18F]12 uptake
same,"tracer uptake, percent of injected dose per ml, after drug treatment vs baseline",SCC1 tumors,significantly reduced
same,effect of drug on [18F]WC-4-138 uptake in HNSCC cell lines,[1],abolished
"NC(=O)c1cccc2[nH]c(-c3ccc(OCCF)cc3)nc12 [Compound 8, 2-(4-(2-Fluoroethoxy)phenyl)-1H-benzo[d]imidazole-4-carboxamide]",IC50,"PARP-1; read-out: IC50, inhibition of PARP-1, unit inferred",10.8 nM
"C#CCOc1ccc(-c2nc3c(C(N)=O)cccc3[nH]2)cc1 [Compound 9, 2-(4-(Prop-2-ynloxy)phenyl)-1H-benzo[d]imidazole-4-carboxamide]",IC50,PARP-1; [2],25.8 ± 3.3 nM
"C#CCOc1ccc(-c2nc3cccc4c3n2CCNC4=O)cc1 [Compound 13, 5,6-Dihydro-2-(4-(prop-2-ynyloxy)phenyl)-imidazo[4,5,1-jk][1,4]benzodiazepine-7(4H)-one]",IC50,PARP-1; [2],18.7 ± 2.7 nM
"O=C1NCCn2c(-c3ccc(OCc4cn(CCF)nn4)cc3)nc3cccc1c32 [Compound 15, 5,6-Dihydro-2-(4-((1-(2-fluoroethyl)-1H-1,2,3-triazol-4-yl)methoxy)phenyl)-imidazo[4,5,1-jk][1,4]benzodiazepin-7(4H)-one]",IC50,PARP-1; [2],22.1 ± 6.3 nM
